System: Sorbitol oxidase
Test: Substrate range study of sorbitol oxidase (relative POx activities for substrates)
Assay type: biochemical, Streptomyces sp. H-7775
[1] = substrates 50 mM in 10 mM phosphate buffer pH 7.0, relative to sorbitol

Protocol: All substrates used in the assay were 50 mM in 10 mM phosphate buffer pH 7.0.

Row | Structure (SMILES) | Relative Activity (+, 0) (pH 7) | Relative Activity (+, 0) [1]
1 | OCCO [Ethylene glycol] | 0 | –
2 | OC[C@@H](O)[C@@H](O)[C@H](O)[C@@H](O)CO [D-Sorbitol] | – | ++++++ (++++++=100%)
3 | CC(O)CO (stereo not drawn) [Propylene glycol] | – | 0
